Measurements reported in US20100256214A1, “EPH RECEPTOR LIGANDS AND METHODS OF USE” (Burnham Institute for Medical Research, priority 2009, published 2010).

Experiments:
EGF receptor = EGF receptor phosphorylation in COS7 cells; format: cell-based; conditions: COS7 cells stimulated with EGF
HT22 neuronal cells = experiment: MTT cytotoxicity assay; format: cell-based, mouse; conditions: concentrations up to 400 μM for several days
Method: FIG. 7. HT22 neuronal cells were grown in the presence of the indicated concentrations of compounds 1 and 2 for 1, 2 and 3 days. Only DMSO was used in the “0 μM” sample, as a control. After addition of MTT, absorbance was measured at 570 nm to determine the levels of viable cells present. The histograms show the absorbance obtained for each condition normalized to the absorbance in the absence of the compounds. Error bars represent standard error from 3 measurements.
MTT Assay—The cytotoxicity of the compounds was measured using the 3-(4,5-dimethylthiazol-2-yl)-2,5-diphenyltetrazolium bromide (MTT) colorimetric assay. Cells were seeded in 96-well plates and treated with compounds or DMSO starting 3, 2 or 1 day before they reached 100% confluency. For the assay, MTT (Sigma-Aldrich, St. Louis, Mo.) was added at a final concentration of […] and incubated with the cells for 3 hours. The resulting formazan crystals were then solubilized by addition of 100% DMSO. The absorbance in each well was measured at 570 nm using an ELISA plate reader. The results were expressed as the ratio of the absorbance of the cells treated with the compounds and left untreated.

EphA2 = EphA2 (Homo sapiens, UniProt P29317); experiment: EphA2 tyrosine phosphorylation in PC3 cells; format: cell-based; design: endogenous in cells; host or cells: PC3
Method: FIGS. 9A-9G. A. PC3 cells pretreated for 15 min with the indicated concentrations of compound 1 or compound 2 were stimulated with 0.5 μg/mL ephrin-A1 Fc (+) or Fc as a control (−) for 20 min in the continued presence of the compounds. EphA2 immunoprecipitates were probed with anti-phosphotyrosine antibody (PTyr) and reprobed for EphA2. C indicates immunoprecipitations performed with control antibodies. B. Histogram showing the levels of EphA2 phosphorylation normalized to the amount of immunoprecipitated EphA2. Error bars indicate standard error from 3 experiments. Receptor phosphorylation levels were compared with those in the ephrin-stimulated cells by one-way ANOVA and Dunnett's post test. *P<0.05 and *P<0.01. C. PC3 cells stimulated with compound 1 as in (A) were stained with rhodamine-phalloidin to label actin filaments and DAPI to label nuclei. DMSO was used as a control (0 μM). […] Cells having rounded shape and area less than 20% of the mean value obtained for the Fc stimulated cells were scored as retracting. […]
Measurement of Receptor Tyrosine Phosphorylation in Cells—HT22 neuronal cells, which endogenously express EphA4, are derived from immortalized mouse hippocampal neurons (Li et al. (1997) Neuron 19(2), 453-463). […] The protein concentration was calculated using the BCA protein assay kit (Pierce Biotecnology, Rockford, Ill.). […]

Sequence of EphA2 (P29317 24-976): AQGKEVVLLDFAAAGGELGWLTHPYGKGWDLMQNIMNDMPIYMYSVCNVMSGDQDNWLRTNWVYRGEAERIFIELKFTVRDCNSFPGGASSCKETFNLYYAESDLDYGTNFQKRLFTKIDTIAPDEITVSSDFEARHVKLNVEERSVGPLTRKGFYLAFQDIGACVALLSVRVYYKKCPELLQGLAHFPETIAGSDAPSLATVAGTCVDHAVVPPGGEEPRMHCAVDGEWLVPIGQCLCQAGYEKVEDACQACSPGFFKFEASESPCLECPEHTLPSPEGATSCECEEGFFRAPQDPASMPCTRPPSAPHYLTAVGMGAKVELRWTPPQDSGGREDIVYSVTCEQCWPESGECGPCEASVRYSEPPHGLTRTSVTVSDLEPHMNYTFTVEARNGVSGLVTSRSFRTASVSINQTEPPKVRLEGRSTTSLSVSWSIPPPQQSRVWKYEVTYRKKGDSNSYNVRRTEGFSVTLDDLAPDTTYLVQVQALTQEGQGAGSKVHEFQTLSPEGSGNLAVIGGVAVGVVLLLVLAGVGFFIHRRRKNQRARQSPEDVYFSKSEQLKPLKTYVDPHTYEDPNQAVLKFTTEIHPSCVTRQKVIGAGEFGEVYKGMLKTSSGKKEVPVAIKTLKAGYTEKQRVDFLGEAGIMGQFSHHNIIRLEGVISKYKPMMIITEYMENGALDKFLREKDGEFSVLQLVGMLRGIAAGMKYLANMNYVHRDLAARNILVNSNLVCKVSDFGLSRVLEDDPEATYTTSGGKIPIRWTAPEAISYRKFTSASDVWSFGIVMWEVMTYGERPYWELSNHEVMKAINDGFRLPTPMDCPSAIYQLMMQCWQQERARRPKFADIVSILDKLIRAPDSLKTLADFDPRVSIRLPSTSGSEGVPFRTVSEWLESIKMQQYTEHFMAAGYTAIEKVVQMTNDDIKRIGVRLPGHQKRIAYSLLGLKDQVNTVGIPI

Row | SMILES | phosphorylation of the EGF receptor (EGF receptor) | toxicity, cell viability by MTT (HT22 neuronal cells) | EphA2 activation following stimulation with ephrin-A1 Fc (EphA2)
1 | Cc1ccc(C)n1-c1ccc(C(=O)O)c(O)c1 [compound 1, 4-(2,5-dimethyl-pyrrol-1-yl)-2-hydroxy-benzoic acid] | did not inhibit | did not reveal any toxicity | blocked
2 | Cc1ccc(C)n1-c1ccc(O)c(C(=O)O)c1 [compound 2, 5-(2,5 dimethyl-pyrrol-1-yl)-2-hydroxy-benzoic acid] | did not inhibit | did not reveal any toxicity | blocked
